Data as given in patent publication US6407115B1, “Hexa-cyclic compound” (Daiichi Pharmaceutical Co., Ltd., priority 1991, dated 2002).

Row | melting point | SMILES
1 | 225 to 235 °C | CC[C@@]1(O)C(=O)OCc2c1cc1n(c2=O)Cc2c-1nc1ccc(C)c3c1c2C(NC(C)=O)CN3 (stereo partly shown)
2 | 210 to 230 °C (dec.) | CC[C@@]1(O)C(=O)OCc2c1cc1n(c2=O)Cc2c-1nc1ccc(C)c3c1c2CCN3CCN.Cl
3 | 155 to 165 °C (dec.) | CC[C@@]1(O)C(=O)OCc2c1cc1n(c2=O)Cc2c-1nc1ccc(C)c3c1c2CCN3CCNC(C)=O

The next lines start with the compound.

Row | SMILES | melting point
4 | CC[C@@]1(O)C(=O)OCc2c1cc1n(c2=O)Cc2c-1nc1cccc3c1c2C(NC(C)=O)CCC3 (stereo partly shown) | 203 to 206 °C (dec.)
5 | CC[C@@]1(O)C(=O)OCc2c1cc1n(c2=O)Cc2c-1nc1cccc3c1c2CC(S(=O)(=O)O)C3 (stereo partly shown) | 190 to 200 °C (dec.)
6 | CC[C@@]1(O)C(=O)OCc2c1cc1n(c2=O)Cc2c-1nc1ccc(C)c3c1c2CCC3N1C(=O)c2ccccc2C1=O (stereo partly shown) | 285 to 290 °C (dec.)
7 | CC[C@@]1(O)C(=O)OCc2c1cc1n(c2=O)Cc2c-1nc1ccc(Cl)c3c1c2C(NC(C)=O)CN3 (stereo partly shown) | 250 to 270 °C
